In patent publication US20240140958A1, “FUSED QUADRACYCLIC COMPOUNDS, COMPOSITIONS AND USES THEREOF” (Tabomedex Biosciences, Inc., priority 2021, published 2024):

Key:
[1] = molecular target: T1, MAPKAPK2 Recombinant Human Protein (Homo sapiens, UniProt P49137); test: MK2 kinase assay (Z'-LYTE kinase assay kit); details: inhibition of MK2 biochemical activity; 90 min incubation at room temperature
T1 construct: purchased ThermoFisher pv3317
Procedure: Materials and Reagents for Measuring Inhibition of MK2 Biochemical Activity: • 1) Assay plate: 384 Well Low Volume Black Round Bottom Polystyrene NBS Microplate (Corning, Cat.No. 4514) • 2) MK2 kinase assay kit: Z' LYTE KINASE ASSAY KIT (ThermoFisher, Cat.No. pv3177) • 3) MAPKAPK2 Recombinant Human Protein (ThermoFisher, Cat.No. pv3317) • 4) DMSO (Vetec, Cat.No. V900090) • 5) DTT (Sigma, Cat.No. D0632)
MK2 Kinase Assay Procedure: • 1) Dispense 5 μl Kinase/Peptide Mixture to each wells of 384-well plate • 2) Add 2.5 μl 4× Test Compound to each well • 3) Add 2.5 μl 4× ATP Solution to each well • 4) After 90 minutes incubation at room temperature, add 5 μl Development Solution to each well • 5) After 60 minutes incubation at room temperature, add 5 μl stop Solution to each well • 6) Measure the Coumarin (Ex. 400 nm, Em. 445 nm) and Fluorescein (Ex. 400 nm, Em. 520 nm) emission signals on an Envision plate reader (PerkinElmer)

THP-1 cells = test: THP-1 cell assay: LPS-stimulated pSer78-Hsp27 ELISA; format: cell-based; details: Homo sapiens, PMA-differentiated THP-1 cells, compound 60 min before 20 ng/mL LPS for 30 min
Excerpt: Materials and Reagents for Measuring Activity in THP-1 Cells: • 1) THP-1 cells (Cell bank of Shanghai) • 2) PMA (Sigma, Cat.No. P1585) • 3) LPS (Sigma, Cat.No. L4516) • 4) 96-well tissue-culture treated plate (Grenier, Cat.No. 655180) • 5) FBS (Thermofisher, Cat.No. 10100147) • 6) Complete EDTA-free protease inhibitor Cocktail (Roche, Cat.No. 4693132001) • 7) PhosSTOP (Roche, Cat.No. 4906845001) • 8) Phosphor-Hsp27 (Ser78) Sandwich Elisa kit (CST, Cat.No. 7295)
Cell Assay Procedure: • 1) Day 0: THP-1 cells are seeded at 50K/well in complete media (1640+10% FBS+50 μM β-ME)+20 ng/mL PMA in 96-well plate • 2) Day 1: PMA containing media is removed after 24 h incubation (37° C./5% CO2), and replaced with complete growth media. Cells are incubated an additional 48 h to recover. • 3) Day 3: Cells are incubated with or without compounds at indicated concentrations for 60 min, prior to addition of 20 ng/mL LPS. Cells are stimulated for 30 min with LPS, washed 1× with ice cold PBS, lysed on ice in Lysis buffer provided in ELISA kit with Roche protease & phosphatase inhibitors. Extracts are clarified by refrigerated centrifugation & stored at −80° C. until pHsp27/total Hsp27 ELISAs • 4) Day 3 or Day 4: Cell Signaling Technology ELISA is run for pSer78-Hsp27 on lysates diluted to approximately 2.5 μg/well. • 5) The absorbance at 450 nm was read in a SpectraMax plus plate reader (Molecular Devices). Data was processed using GraphPad prism 8.0.

T1 sequence (P49137 whole entry): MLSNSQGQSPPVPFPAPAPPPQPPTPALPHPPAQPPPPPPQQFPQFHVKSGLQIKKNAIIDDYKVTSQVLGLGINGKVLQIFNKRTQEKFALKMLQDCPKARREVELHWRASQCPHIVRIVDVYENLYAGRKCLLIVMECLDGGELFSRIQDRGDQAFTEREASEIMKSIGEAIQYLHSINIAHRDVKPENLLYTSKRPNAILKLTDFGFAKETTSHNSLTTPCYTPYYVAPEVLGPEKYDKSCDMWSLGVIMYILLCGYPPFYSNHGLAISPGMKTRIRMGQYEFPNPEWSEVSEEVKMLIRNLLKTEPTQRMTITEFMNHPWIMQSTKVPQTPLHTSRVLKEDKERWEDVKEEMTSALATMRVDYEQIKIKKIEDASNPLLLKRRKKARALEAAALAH

| IC50 [1] | IC50 (THP-1 cells) | Structure (SMILES) |
| --- | --- | --- |
| 50 to 100 nM | 300 to 400 nM | C[C@H]1[C@@H](CN(C)C)OC(=O)N1c1ccc2c(c1)Cn1cc(-c3ccc(C#N)cc3)cc1-c1nccn1-2 [Example 61, 4-(7-((4S,5R)-5-((Dimethylamino)methyl)-4-methyl-2-oxooxazolidin-3-yl)-9H-benzo[e]imidazo[2,1-c]pyrrolo[1,2-a][1,4]diazepin-12-yl)benzonitrile] |
| < 50 nM | < 50 nM | CN1CC2(CCN(c3ccc4c(c3)Cn3cc(-c5ccc(C#N)cc5)cc3-c3nccn3-4)C2=O)C1 [Example 24, 4-(7-(2-Methyl-5-oxo-2,6-diazaspiro[3.4]octan-6-yl)-911-benzo[e]imidazo [2,1-c]pyrrolo[1,2-a][1,4]diazepin-12-yl)benzonitrile] |
| < 50 nM | 200 to 300 nM | CN(C)C[C@H]1CCN1C(=O)c1ccc2c(c1)Cn1cc(-c3ccc(C#N)cc3)cc1-c1nccn1-2 [Example 115] |
| < 50 nM | 50 to 100 nM | CN(C)[C@H]1C[C@@H](N2CCN(c3ccc4c(c3)Cn3cc(-c5ccc(C#N)cc5)cc3-c3nccn3-4)C2=O)C1 [Example 59] |
| 50 to 100 nM | 200 to 300 nM | CN1CC2(C1)CN(C(=O)c1ccc3c(c1)Cn1cc(-c4ccc(C#N)cc4)cc1-c1nccn1-3)C2 [Example 109] |
| < 50 nM | 50 to 100 nM | N#Cc1ccc(-c2cc3n(c2)Cc2cc(N4C[C@@H](C5(N)CC5)CC4=O)ccc2-n2ccnc2-3)cc1 [Example 50] |
| < 50 nM | < 50 nM | N#Cc1ccc(-c2cc3n(c2)Cc2cc(N4C[C@@H](CN5CCC5)OC4=O)ccc2-n2ccnc2-3)cc1 [Example 5] |
| < 50 nM | 1000 to 1500 nM | N#Cc1ccc(-c2cc3n(c2)Cc2cc(NC(=O)C4CCNC4)ccc2-n2ccnc2-3)cc1 (stereo not shown) [Example 76, N-(12-(4-Cyanophenyl)-9H-benzo[e]imidazo[2,1-c]pyrrolo[1,2-a][1,4]diazepin-7-yl)pyrrolidine-3-carboxamide] |
| < 50 nM | 300 to 400 nM | N#Cc1ccc(-c2cc3n(c2)Cc2cc(N4C[C@@H](CN)CC4=O)ccc2-n2ccnc2-3)cc1 [Example 8] |
| < 50 nM | > 1000 nM | N#Cc1ccc(-c2cc3n(c2)Cc2cc(N4CC(=O)N(CC5CNC5)C4=O)ccc2-n2ccnc2-3)cc1 [Example 66] |
| 50 to 100 nM | 300 to 400 nM | Cc1nnc2n1-c1ccc(N3C[C@@H](CN4CCC4)CC3=O)cc1Cn1cc(-c3ccc(C#N)cc3)cc1-2 [Example 82] |
| < 50 nM | 200 to 300 nM | CN(C)C[C@H]1[C@@H]2CN(c3ccc4c(c3)Cn3cc(-c5ccc(C#N)cc5)cc3-c3nccn3-4)C(=O)[C@H]12 [Example 46] |
| < 50 nM | 100 to 200 nM | CC(C)(C)NC[C@H]1CC(=O)N(c2ccc3c(c2)Cn2cc(-c4ccc(C#N)cc4)cc2-c2nccn2-3)C1 [Example 13] |
| < 50 nM | 500 to 1000 nM | N#Cc1ccc(-c2cc3n(c2)Cc2cc(N4C[C@@H](CN5CC(F)C5)CC4=O)ccc2-n2ccnc2-3)cc1 [Example 28] |
| 50 to 100 nM | 50 to 100 nM | CN(CCO)C[C@H]1CC(=O)N(c2ccc3c(c2)Cn2cc(-c4ccc(F)cc4)cc2-c2nccn2-3)C1 [Example 89, (R)-1-(12-(4-Fluorophenyl)-9H-benzo[e]imidazo[2,1-c]pyrrolo[1,2-a][1,4]diazepin-7-yl)-4-(((2-hydroxyethyl)(methyl)amino)methyl)pyrrolidin-2-one] |
| < 50 nM | 50 to 100 nM | N#Cc1ccc(-c2cc3n(c2)Cc2cc(N4C[C@@H](CN5CC(O)C5)CC4=O)ccc2-n2ccnc2-3)cc1 [Example 29] |

| IC50 [1] | IC50 (THP-1 cells) | Structure (SMILES) |
| --- | --- | --- |
| < 50 nM | < 50 nM | CN(C)C[C@@H]1CN(c2ccc3c(c2)Cn2cc(-c4ccc(C#N)cc4)cc2-c2nccn2-3)C(=O)O1 [Example 1, (R)-4-(7-(5-((Dimethylamino)methyl)-2-oxooxazolidin-3-yl)-9H-benzo [e]imidazo[2,1-c]pyrrolo[1,2-a][1,4]diazepin-12-yl)benzonitrile] |
| < 50 nM | < 50 nM | CN(C)CCN1C(=O)CN(c2ccc3c(c2)Cn2cc(-c4ccc(C#N)cc4)cc2-c2nccn2-3)C1=O [Example 75, 4-(7-(3-(2-(Dimethylamino)ethyl)-2,4-dioxoimidazolidin-1-yl)-9H-benzo[e]imidazo[2,1-c]pyrrolo[1,2-a][1,4]diazepin-12-yl)benzonitrile] |
| < 50 nM | 100 to 200 nM | CCNC[C@H]1CC(=O)N(c2ccc3c(c2)Cn2cc(-c4ccc(C#N)cc4)cc2-c2nccn2-3)C1 [Example 10] |
| < 50 nM | < 50 nM | CC(C)(C1CC(=O)N(c2ccc3c(c2)Cn2cc(-c4ccc(C#N)cc4)cc2-c2nccn2-3)C1)N1CCC1 (stereo not shown) [Example 55, 4-(7-(4-(2-(Azetidin-1-yl)propan-2-yl)-2-oxopyrrolidin-1-yl)-9H-benzo[e]imidazo[2,1-c]pyrrolo[1,2-a][1,4]diazepin-12-yl)benzonitrile] |
| < 50 nM | < 50 nM | CC1(C)CCN1C[C@@H]1CN(c2ccc3c(c2)Cn2cc(-c4ccc(C#N)cc4)cc2-c2nccn2-3)C(=O)O1 [Example 6, (R)-4-(7-(5-((2,2-Dimethylazetidin-1-yl)methyl)-2-oxooxazolidin-3-yl)-9H-benzo[e]imidazo[2,1-c]pyrrolo[1,2-a][1,4]diazepin-12-yl)benzonitrile] |
| < 50 nM | < 50 nM | CN(C)CC1CCN(c2ccc3c(c2)Cn2cc(-c4ccc(C#N)cc4)cc2-c2nccn2-3)C1=O (stereo not shown) [Example 34, 4-(7-(3-((Dimethylamino)methyl)-2-oxopyrrolidin-1-yl)-9H-benzo[e]imidazo [2,1-c]pyrrolo[1,2-a][1,4]diazepin-12-yl)benzonitrile] |
| < 50 nM | 50 to 100 nM | CN(C)[C@@H]1CCN(C(=O)Nc2ccc3c(c2)Cn2cc(-c4ccc(C#N)cc4)cc2-c2nccn2-3)C1 [Example 74] |
| 50 to 100 nM | 200 to 300 nM | CN1CC(n2ccn(-c3ccc4c(c3)Cn3cc(-c5ccc(C#N)cc5)cc3-c3nccn3-4)c2=O)C1 [Example 71, 4-(7-(3-(1-Methylazetidin-3-yl)-2-oxo-2,3-dihydro-1H-imidazol-1-yl)-9H-benzo[e]imidazo[2,1-c]pyrrolo[1,2-a][1,4]diazepin-12-yl)benzonitrile] |
| 50 to 100 nM | 500 to 1000 nM | CN(C)CC1CN(C(=O)c2ccc3c(c2)Cn2cc(-c4ccc(C#N)cc4)cc2-c2nccn2-3)C1 [Example 117] |
| < 50 nM | 100 to 200 nM | CC(C)NC[C@H]1CC(=O)N(c2ccc3c(c2)Cn2cc(-c4ccc(C#N)cc4)cc2-c2nccn2-3)C1 [Example 12] |
| < 50 nM | 400 to 500 nM | CN(C)CC1(C)CC(=O)N(c2ccc3c(c2)Cn2cc(-c4ccc(C#N)cc4)cc2-c2nccn2-3)C1 (stereo not shown) [Example 33, 4-(7-(4-((Dimethylamino)methyl)-4-methyl-2-oxopyrrolidin-1-yl)-9H-benzo [e]imidazo[2,1-c]pyrrolo[1,2-a][1,4]diazepin-12-yl)benzonitrile] |
| < 50 nM | 500 to 1000 nM | CN(C)[C@H]1C[C@H](NC(=O)c2ccc3c(c2)Cn2cc(-c4ccc(C#N)cc4)cc2-c2nccn2-3)C1 [Example 126] |
| < 50 nM | 50 to 100 nM | CNC[C@H]1CC(=O)N(c2ccc3c(c2)Cn2cc(-c4ccc(C#N)cc4)cc2-c2nccn2-3)C1 [Example 9] |
| < 50 nM | > 1000 nM | CN1CC(CN2C(=O)CN(c3ccc4c(c3)Cn3cc(-c5ccc(C#N)cc5)cc3-c3nccn3-4)C2=O)C1 [Example 67] |
| 50 to 100 nM | 200 to 300 nM | CN(C)C[C@@H]1CC(=O)N(c2ccc3c(c2)Cn2cc(-c4ccc(C#N)cc4)cc2-c2nccn2-3)C1 [Example 17, (S)-4-(7-(4-((Dimethylamino)methyl)-2-oxopyrrolidin-1-yl)-9H-benzo[e]imidazo[2,1-c]pyrrolo[1,2-a][1,4]diazepin-12-yl)benzonitrile] |
| < 50 nM | < 50 nM | CN(C)C(C)(C)[C@H]1CC(=O)N(c2ccc3c(c2)Cn2cc(-c4ccc(C#N)cc4)cc2-c2nccn2-3)C1 [Example 54] |
